In general, melting point refers to the temperature of the solid-liquid transition. By CC50 is commonly meant the concentration that lowers cell viability or growth by half.

These results are taken from patent US20120202814A1, “COMPOUNDS WITH DDX3 INHIBITORY ACTIVITY AND USES THEREOF” (UNIVERSITÀ DEGLI STUDI DI SIENA, priority 2009, published 2012).

SMILES strings stand for the structures. Like-named read-outs stand apart in the source and are kept apart here.

One series has as its system HIV-1. Put plainly: Antiviral assay, HIV-1 replication in infected PBMCs (viral RNA in supernatant). The class given is cell-based. The following applies: Human immunodeficiency virus 1, PBMC. On the procedure:
FIG. 1. A) Antiviral activity (expressed as % of viral load with respect to the control) of compounds FE56 and FE66 at 0.3 μM and 3 μM doses against single round HIV-1 replication in HeLaCD4+ cells infected with a wild type HIV-1 strain. Measurements were performed at 72 h post infection. B) Antiviral activity of compounds FE15 and FE66 on HIV-1 replication in phytohemagglutinin-stimulated peripheral blood mononuclear cells (PBMCs) […] with HeLa CD4^+-cell culture supernatants containing wild type HIV. Compounds were tested at 50 μM (FE15) and 5 μM (FE66). The HIV-1 RNA was quantified in the cell culture supernatant after 3, and 5 days of incubation. Results are expressed as HIV RNA copies/ml. Control (white bars).
FIG. 2. Antiviral activity of DDX3 inhibitors. A) Comparison of the antiviral activity (expressed as % of viral RNA with respect to the control) on infected PBMCs of a fixed dose of selected inhibitors. Measurements were performed at 72 h post infection. Values are the means of three independent replicates. Error bars are ±SD. White bars: control without drugs; dark grey bar: positive control with AZT (0.01 μM); black bar: first generation inhibitor FE15 (50 μM); light grey bars: second generation DDX3 inhibitors FE66, 11d and 38 (3 μM). B) Dose-response curves for the inhibiton of HIV-1 replication (expressed as % of viral RNA with respect to the control) in infected PBMCs by FE15 (circles) and 38 (triangles). Measurements were performed at 72 h post infection. Values are the means of three independent replicates. Error bars are ±SD.
In detail, 0.5 μg of each HIV-1 plasmid construct was transfected into CD4 HeLa cells by using the lipofectin reagent, according to the recommendations of the manufacturer (Invitrogen, Groningen, The Netherlands). After 3 days of incubation at 37° C., the cell supernatants, which contained reconstituted viable recombinant viruses, were collected. Quantification of the newly produced recombinant strains was obtained by determination of the HIV RNA copy number in the cell culture supernatants. Successively, 10 ml of transfected HeLa CD4^+-cell culture supernatants containing wild-type, and mutated recombinant HIV strain […], was used to infect aliquots of 10×10^6 phytohemagglutinin-stimulated peripheral blood mononuclear cells (PBMCs) from HIV-seronegative blood donors. After 4 h of incubation, supernatants were removed and infected PBMCs were incubated at 37° C. in 10 ml of RPMI 1640 medium (Eurobio, Les Ulis Cedex B, France) supplemented with 20% fetal calf serum (Life Technologies, Ltd., Paisley, Scotland), 2 mM l-glutamine, 100 U of penicillin per ml, 100 μg of streptomycin per ml, 10% interleukin-2 (ZeptoMetrix Co., Buffalo, N.Y.), 5 μg of hydrocortisone (Sigma Chemical Co.) per ml and with fourfold dilutions of antiretroviral drugs. No-drug controls for each drug dilution were included in each assay. After 3, 5 and 7 days of incubation the HIV-1 RNA in the cell culture supernatant was quantified. Recombinant HIV-1 strains from treatment-naive patients and multidrug resistance-associated changes were assayed in parallel. The degree of inhibition of viral replication was measured by determining the HIV-1 RNA level in the supernatants of cell cultures and was expressed as the fold increase in the 50% inhibitory concentrations (IC50s) for resistant recombinant HIV-1 variants compared with the IC50s for the wild-type recombinant variant. Each test was performed in triplicate.

In series [1] the target is T1, human DDX3 (ATPase activity) (Homo sapiens, UniProt O00571).
T1 construct: made in house; host or cells: E. coli
Put plainly: Human DDX3 ATPase activity assay (luciferase-based luminescence). Format: biochemical. The conditions noted are these: for Ki: DDX3 ATPase activity, read-out: Ki (μM), apparent equilibrium dissociation constant for the inhibitor to the target enzyme DDX3; for IC50: ATPase activity, read-out: ATPase ID50. The protocol: ATPase activity was tested with a luciferase-based luminescence assay (Easylite-Kinase, Perkin Elmer) on 96 wells microtiter plates. Briefly, recombinant purified human DDX3 (50-100 ng) was incubated in a 15 μL total reaction volume with reaction buffer (25 mM TrisHCl pH 7.5, 5 mM MgCl2), in the presence of increasing amounts of ATP and/or different combinations of ATP and the inhibitor to be tested. Reference curves in the absence of inhibitor (giving the 100% of enzymatic activity) and in the absence of enzyme (giving the baseline), were also included in each experiment. Reading was performed with a Microbeta Trilux (Perkin Elmer) luminometer, according to the manufacturer's protocol.
ATPase reactions were performed as described, in the presence of increasing amounts of inhibitor and variable ATP concentrations. Variations of the initial velocities of the reaction as a function of ATP concentrations in the absence or presence of 4 were analyzed with the equation: […]
Variation of the % inhibition as a function of compound FE15 at different ATP concentrations were fitted to the equation for cooperative binding: […]
where Vmax is the apparent maximal rate of the reaction in the absence of the inhibitor, [I] is the variable inhibitor concentration, n is the cooperativity index and Ki(app) is the apparent inhibition constant. Comparatively, fitting was done with the same Eq. (2) where n was kept fixed at the value of 1 (non-cooperativity hypothesis). F test was used to compare the two fittings and p value was calculated.
(§1) Human recombinant DDX3 was cloned, expressed and purified as described (Franca et al. Proteins 2007, 67, 1128-37).
The anti-DDX3 activity of the compounds of the invention was evaluated by in vitro ATPase activity assay using the recombinant human DDX3 protein produced in E. coli. The potency of inhibition (Ki) for each molecule was calculated, representing the concentration of the inhibitor able to reduce the DDX3 ATPase activity by 50%

Series [2] has as its system cervical cancer HeLa cell line. As to the kind of experiment: Antiproliferative activity against HeLa cells (CellTiter viability assay). The conditions noted are these: Homo sapiens. The class given is cell-based. The protocol: (§2) Selected compounds from Table 1 were tested against the cervical cancer HeLa cell line for antiproliferative activity. Cell viability was measured with the CellTiter viability assay (Table 2). Table 3 lists the calculated antiproliferative potencies (EC50, dose required to suppress 50% of cell viability) for a series of representative compounds of the invention.

In the next series the test system is PBMCs. As to the kind of experiment: Cell viability / cytotoxicity on PBMCs. The conditions noted are these: PBMCs CC50 / antiviral EC50. The class given is cell-based. The source says: (§3) Cell viability in the presence of the compounds has been determined by standard MTT assays.
Series [3] can be described thus: Cell viability / cytotoxicity on PBMCs. The class given is cell-based. The conditions noted are these: human; PBMCs; Table 2 prints no unit; read-out: Cytotoxicity (CC50) PBMCs, dose required to reduce 50% cell vitality.
From the text: as §3

Series [4] can be described thus: Cell viability / cytotoxicity on MOLT-4 cells. The class given is cell-based. The following applies: human, MOLT-4 cells; MOLT-4; Table 2 prints no unit; read-out: Cytotoxicity (CC50) MOLT-4, dose required to reduce 50% cell vitality.
From the text: as §3

The next series concerns MOLT-4. As to the kind of experiment: Cell viability / cytotoxicity on MOLT-4 cells. The class given is cell-based. The following applies: MOLT-4 CC50 / antiviral EC50.
From the text: as §3

The subject of the next series is HeLa cells. Put plainly: Cell viability / cytotoxicity on HeLa cells. The class given is cell-based. The following applies: HeLa CC50 / antiviral EC50. On the procedure: as §3, §2
Series [5] is described as follows: Cell viability / cytotoxicity on HeLa cells. Format: cell-based. The conditions noted are these: human, HeLa cells (cervical cancer cell line); HeLa; Table 2 prints no unit; text gives μM; read-out: Cytotoxicity (CC50) HeLa, dose required to reduce 50% cell vitality. On the procedure: as §3, §2
The target of series [6] is T2, human DDX3 (helicase activity) (Homo sapiens, UniProt O00571).
T2 construct: made in house
Put plainly: Human DDX3 helicase activity assay (ds to ss nucleic acid unwinding). The class given is biochemical. The following applies: for fold higher potency against the helicase with respect to the ATPase activity: helicase versus ATPase ID50; for fold improvement in anti-helicase activity with respect to EI01: ratio of helicase ID50; for IC50: anti-helicase activity, na = not active, read-out: Helicase ID50. The protocol:
The helicase activity of DDX3 wt and mutant forms was monitored by measuring the conversion of a double stranded (ds) DNA or RNA (labelled at the 5′-end of one strand with a 6-FAM fluorescent group or P^32, respectively) into single stranded (ss) nucleic acid. Reactions were performed in 50 mM TrisHCl pH 7.5, 1 mM DTT, 0.2 mg/ml BSA, 5% glycerol and 100 μM ATP, 10 mM MgCl2 at 37° C. degrees for 10′ and stopped by adding EDTA 50 mM pH 8. Products were separated through non-denaturating 8% PAGE at 5 W for 2 hours in TBE buffer at 4° C. Substrates and products were quantified by laser scanning densitometry (Thyphoon-TRIO, GE Healthcare).
as §1
Compounds were obtained by application of a virtual docking protocol on the RNA-binding site identified in the homology model developed in the present invention. These compounds were commercially available (EI-compounds in Table 4). A few other compounds (25-31, EXAMPLE 6) were rationally designed to target the above mentioned RNA-binding site and then synthesized. All the compounds were tested for anti-helicase activity.

Where [7] appears, read: 48 hours, read-out: EC50 (μM) 48 hours, dose required to suppress 50% of cell viability.
The mark [8] stands for this setting: 72 hours, read-out: EC50 (μM) 72 hours, dose required to suppress 50% of cell viability.

T1 sequence (O00571 whole entry): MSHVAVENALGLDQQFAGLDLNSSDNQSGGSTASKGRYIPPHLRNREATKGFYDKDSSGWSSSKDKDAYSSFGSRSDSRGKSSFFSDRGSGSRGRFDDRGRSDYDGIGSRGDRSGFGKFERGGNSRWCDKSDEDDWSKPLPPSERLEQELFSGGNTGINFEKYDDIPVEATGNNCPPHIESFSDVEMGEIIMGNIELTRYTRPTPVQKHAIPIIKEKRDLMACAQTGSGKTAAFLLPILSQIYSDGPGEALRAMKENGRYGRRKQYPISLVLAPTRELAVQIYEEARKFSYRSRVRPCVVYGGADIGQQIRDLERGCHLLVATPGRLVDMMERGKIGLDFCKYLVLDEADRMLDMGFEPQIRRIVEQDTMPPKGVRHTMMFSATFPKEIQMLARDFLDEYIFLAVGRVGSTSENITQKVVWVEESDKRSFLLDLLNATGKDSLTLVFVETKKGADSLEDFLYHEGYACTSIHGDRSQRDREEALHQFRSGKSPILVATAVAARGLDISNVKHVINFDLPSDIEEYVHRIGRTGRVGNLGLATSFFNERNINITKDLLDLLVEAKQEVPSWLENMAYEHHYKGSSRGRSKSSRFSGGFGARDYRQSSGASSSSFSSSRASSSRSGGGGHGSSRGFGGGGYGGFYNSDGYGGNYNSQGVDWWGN
T2 sequence (O00571 whole entry): as above

Regarding `Oc1ccccc1/C=N/Nc1nc(Nc2ccc(F)cc2)nc(N2CCOCC2)n1` [Compound 11d, (E)-2-((2-(4-(4-Fluorophenylamino)-6-morpholino-1,3,5-triazin-2-yl)hydrazono)methyl)phenol], the melting point worked out at 234 °C. Besides, the EC50 in the series on HIV-1 (72 h, read-out: EC50, anti-HIV activity) is 2.5 µM. Also, in [1], the Ki is 0.4 µM.

Turning to `CCN(CC)c1nc(NCc2ccccc2)nc(N/N=C2/C(=O)Nc3ccccc32)n1` [Compound 14g, (E)-3-(2-(4-(benzylamino)-6-(diethylamino)-1,3,5-triazin-2-yl)hydrazono)indolin-2-one], the EC50 in series [2] (setting [7]) and in series [2] (setting [8]) was 10 µM in each case. For the same compound, the Ki in series [1] was determined as 0.1 µM.

In the case of `CCN(CC)c1nc(NCc2ccccc2)nc(N/N=C/c2ccccc2O)n1` [Compound 15k, (E)-2-((2-(4-(benzylamino)-6-(diethylamino)-1,3,5-triazin-2-yl)hydrazono)methyl)phenol], the EC50 in [2] (setting [7]) turned out to be 3 µM; in series [2] (setting [8]), 1 µM. Besides, the Ki in [1] was found to be 0.5 µM.

Take `Oc1ccccc1/C=N/Nc1nc(Nc2ccc(F)cc2)nc(N2CCOCC2)n1` [Compound 16c]: the EC50 in the series with HIV-1 (read-out: Antiviral activity, dose required to reduce 50% viral proliferation (measured as viral RNA load)) is 2.5 ± 0.1 µM. In addition, the “Selectivity index PBMCs, CC50/EC50” value in the series with PBMCs worked out at 4.0. The CC50 in series [3] is 10 ± 1 µM; in series [4], 5 ± 1 µM; in series [5], 2.5 ± 0.3 µM. For the same compound, the “Selectivity index MOLT-4, CC50/EC50” value in the series on MOLT-4 turned out to be 2.0. In the series with HeLa cells, the “Selectivity index HeLa, CC50/EC50” value is given as 1.0.

In the case of `Cc1ccccc1NC(=O)Nc1cccc([N+](=O)[O-])c1` [Compound 25, 1-(3-nitrophenyl)-3-o-tolylurea], the IC50 in series [1] worked out at 11 µM. Further, in series [6], the “fold higher potency against the helicase with respect to the ATPase activity” value amounted to 11 fold and the “fold improvement in anti-helicase activity with respect to EI01” value is on record as 245 fold.

For the compound `Cc1ccccc1NC(=O)Nc1cccc(N)c1` [Compound 26, 1-(3-aminophenyl)-3-o-tolylurea], in series [6], the IC50 stood at 5.7 µM and the “fold improvement in anti-helicase activity with respect to EI01” value amounted to 43 fold.

Turning to `O=C(Nc1cccc([N+](=O)[O-])c1)Nc1cccc([N+](=O)[O-])c1` [Compound 29, 1,3-bis(3-nitrophenyl)urea], the IC50 in series [6] was 52 µM.

Take `Nc1cccc(NC(=O)Nc2cccc(N)c2)c1` [Compound 30, 1,3-bis(3-aminophenyl)urea]: the IC50 in series [6] was 24 µM.

Consider `Cc1ccccc1NC(=O)Nc1cccc(NC(=O)Nc2cccc(NC(=O)Nc3ccccc3C)c2)c1` [Compound 31, 1,3-bis(3-{[(2-methylphenyl)carbamoyl]amino}phenyl)urea], for which the IC50 in series [6] is 1300 µM.

As for `Cc1ccc(NC(=O)c2cccc(NC(=O)Nc3cccc(C)c3C)c2)cc1C` [EI-01A], the IC50 in series [6] was found to be 131 µM.

Consider `O=C(Nc1cccc(C(=O)Nc2ccccc2Cl)c1)Nc1ccccc1Cl` [EI-01B], for which, in [6], the IC50 was 1300 µM.

In the case of `Cc1ccccc1NC(=O)Nc1cccc(NC(=O)Nc2ccccc2C)c1` [EI-01], the IC50 in series [1] came out at 245 µM. Besides, in [6], the IC50 amounted to 250 µM; the “fold higher potency against the helicase with respect to the ATPase activity” value is “did not discriminate between ATPase and helicase activities”.

With `COc1ccc(Nc2nc(NCc3ccco3)nc(N/N=C/c3cc([N+](=O)[O-])ccc3O)n2)cc1` [FE-56A], the EC50 came to 8 µM in series [2] (setting [7]) and 4 µM in series [2] (setting [8]). In series [1], the Ki came to 31.7 µM.

For the compound `CC(=O)Nc1ccc(/C(C)=N/Nc2nc(Nc3ccccc3)nc(Nc3ccccc3)n2)cc1` [FE-56F], the EC50 in series [2] (setting [7]) was 10 µM; in [2] (setting [8]) it was 5 µM. Besides, the Ki in [1] was 0.3 µM.

Regarding `Cc1[nH]c2ccccc2c1/C=N/Nc1nc(Nc2ccc(F)cc2)nc(N2CCOCC2)n1` [FE-56M], the EC50 was 10 µM in series [2] (setting [7]) and 5 µM in [2] (setting [8]). In addition, the Ki in [1] stood at 0.2 µM.

Regarding `Clc1ccc(-c2ccc(/C=N/Nc3nc(Nc4ccccc4)nc(N4CCCCC4)n3)o2)cc1` [FE-56N], the results for the EC50 in [2] (setting [7]) and in [2] (setting [8]) were 25 µM and 4 µM, respectively. Also, the Ki in [1] was 0.4 µM.
